# From patent US10450549B2, “Aryloxyphenoxypropionate tolerance in turfrgass species and use of AAD1 as a selectable marker” (Dow AgroSciences, LLC, priority 2004, dated 2019)
# What was measured:
# [1] = system: transformed-control line containing PAT and Cry1F; test: Foliar-applied auxinic herbicides on control (PAT/Cry1F, wildtype) Arabidopsis, % injury 14 DAT; format: in vivo, Arabidopsis thaliana; conditions: PatCry1f - Control
# In short: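 Homozygous T4 AAD1 (v3) Arabidopsis (line AAD1.01.315.076) and a PAT/Cry1F transformed control were grown in pots and track-sprayed foliarly at 187 L/ha with herbicides formulated in 200 mM Hepes pH 7.5. Injury was rated 14 days after treatment, with 3-4 replicates averaged over two experiments.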
# [2] = target: AAD2 (v1) (Bradyrhizobium diazoefficiens, UniProt Q89UC4); test: Colorimetric phenol assay of AAD2 (v1) E. coli extract / partially purified enzyme; format: biochemical, Bradyrhizobium japonicum
# [3] = system: AAD2 (v1)-transformed T1 Arabidopsis; test: T1 Arabidopsis response to postemergence herbicide, % visual injury 2 WAT: native AAD2 (v1) transformants; format: in vivo, Arabidopsis thaliana; conditions: Native AAD2 gene
# Excerpt: Table 16. […] Response is presented in terms of % visual injury 2 WAT. […] Since each T1 is an independent transformation event, one can expect significant variation of individual T1 responses within a given rate. An arithmetic mean and standard deviation is presented for each treatment. The range in individual response is also indicated in the last column for each rate and transformation. PAT/Cry1F-transformed Arabidopsis served as an auxin-sensitive transformed control. Wildtype Arabidopsis is untransformed.
# Freshly harvested T1 seed transformed with a native [AAD1 (v2)], plant optimized [AAD1 (v3)], or native AAD2 (v1) gene was allowed to dry for 7 days at room temperature. T1 seed was sown in 26.5×51-cm germination trays (T.O. Plastics Inc., Clearwater, Minn.), each receiving a 200 mg aliquots of stratified T1 seed (˜10,000 seed) that had previously been suspended in 40 ml of 0.1% agarose solution and stored at 4° C. for 2 days to complete dormancy requirements and ensure synchronous seed germination.
# Sunshine Mix LP5 (Sun Gro Horticulture Inc., Bellevue, Wash.) was covered with fine vermiculite and subirrigated with Hoagland's solution until wet and then allowed to gravity drain. Each 40 ml aliquot of stratified seed was sown evenly onto the vermiculite with a pipette and covered with humidity domes (KORD Products, Bramalea, Ontario, Canada) for 4-5 days. Domes were removed 1 day prior to initial transformant selection using glufosinate postemergence spray (selecting for the co-transformed PAT gene).
# Five to six days after planting (DAP) and again 10 DAP, T1 plants (cotyledon and 2-4-1f stage, respectively) were sprayed with a 0.2% solution of Liberty herbicide (200 g ai/L glufosinate, Bayer Crop Sciences, Kansas City, Mo.) at a spray volume of 10 ml/tray (703 L/ha) using a DeVilbiss compressed air spray tip to deliver an effective rate of 280 g ai/ha glufosinate per application. Survivors (plants actively growing) were identified 5-7 days after the final spraying and transplanted individually into 3-inch pots prepared with potting media (Metro Mix 360). Transplanted plants were covered with humidity domes for 3-4 days and placed in a 22° C. growth chamber as before. Domes were subsequently removed and plants moved to the greenhouse (22+5° C., 50+30% RH, 14 hours light:10 dark, minimum 500 μE/m^2s^1 natural+supplemental light) at least 1 day prior to testing for the ability of AAD1 (v3), AAD1 (v2), or AAD2 (v1) to provide phenoxy auxin herbicide resistance.
# Random individual T1 plants selected for glufosinate resistance above were confirmed for expression of the PAT protein using a PAT ELISA kit (Part no. 7000045, Strategic Diagnostics, Inc., Newark, Del.) to non-destructively confirm fidelity of selection process (manufacturer's protocol).
# Herbicide applications were applied by track sprayer in a 187 L/ha spray volume.
# [4] = system: callus event 3404-006; test: Dose response of AAD1 (v3) expressing maize callus event; format: cell-based; conditions: haloxyfop (Gallant Super) up to 400 nM
# Description: Non-transformed donor Hi-II cell lines were pooled together, […]-treated without DNA, filtered onto GN6 medium at the rate of 6 ml per filter, and allowed to callus for 2-3 weeks at 28° C. Approximately 200 mg of callused suspension tissue was transferred per treatment to selection media in 60×20 mm plates containing 30, 100 or 300 nM R-haloxyfop acid. Three replicates were used per concentration. A control medium containing 1 mg/L bialaphos (from Herbiace commercial formulation, Meiji Seika, Japan), GN6 (1H), was also included for comparison. Callus was removed after 2 weeks, weighed, and transferred to fresh media of the same concentration for another 2 weeks. After a total of 4 weeks elapsed time, tissue was removed, weighed a final time, and then discarded.
# A smaller subset of these events was assessed in dose-response studies in comparison to a non-transformed control. A range of concentrations of haloxyfop (from Gallant Super formulation), up to 400 nM, were tested.
# [5] = system: AAD1 (v3) rice plantlets; test: Rice tolerance testing with Assure II (sensitivity or resistance 10-14 DAT); format: in vivo, Oryza sativa L. japonica cv. Taipei 309; conditions: 140 g ae/ha
# Description: This concentration corresponds to approximately 140 g ae/ha. Each plant was spayed in a fume hood at a distance of 8-12 inches with 6 full squirts of the sprayer directed so that the entire plant was covered with an equal portion of herbicide. Each squirt delivered approximately 100 μl solution to the plantlet. Once sprayed, plantlets were allowed to dry for one hour before being moved out of the fume hood.
structure (smiles),measurement,setting,value
Nc1c(Cl)c(F)nc(OCC(=O)O)c1Cl [Fluroxypyr],Ave % Injury 14DAT,[1]; 50 g ae/ha foliar,76%
same,Ave % Injury 14DAT,[1]; 200 g ae/ha foliar,85%
same,Ave % Injury 14DAT,[1]; 800 g ae/ha foliar,85%
same,Ave % Injury 14DAT,[1]; 3200 g ae/ha foliar,95%
"O=C(O)COc1ccc(Cl)cc1Cl [2,4-D, 2,4-dichlorophenoxyacetic acid]",Vmax (A510 units),"[2]; AAD2 (pDAB3202), MOPS pH 6.75",0.86 A510 units
same,"apparent Vmax, AAD2 (v1)",[2]; partially purified enzyme,0.86 A510 units
same,% Injury Ave,[3]; 50 g ae/ha,68.2%
same,individuals with 20-40% injury,[3]; 50 g ae/ha,2
same,individuals with <20% injury,[3]; 50 g ae/ha,1
same,individuals with >40% injury,[3]; 50 g ae/ha,11
same,individuals with 20-40% injury,[3]; 200 g ae/ha,3
same,individuals with <20% injury,[3]; 200 g ae/ha,0
same,individuals with >40% injury,[3]; 200 g ae/ha,11
same,% Injury Ave,[3]; 800 g ae/ha,99.8%
same,individuals with 20-40% injury,[3]; 800 g ae/ha,0
same,individuals with <20% injury,[3]; 800 g ae/ha,0
same,individuals with >40% injury,[3]; 800 g ae/ha,14
CC(Oc1ccc(Oc2ncc(C(F)(F)F)cc2Cl)cc1)C(=O)O (stereo not drawn) [haloxyfop],callus growth of event 3404-006,[4],no significant reduction in callus growth
C[C@@H](Oc1ccc(Oc2cnc3cc(Cl)ccc3n2)cc1)C(=O)O [quizalofop],Rating for sensitivity or resistance,[5]; Control rice plant,Dead
same,Rating for sensitivity or resistance,[5]; rice plant 63-1A,No injury
same,Rating for sensitivity or resistance,[5]; rice plant 63-1F,No injury
same,Rating for sensitivity or resistance,[5]; rice plant 63-4B,No injury
same,Rating for sensitivity or resistance,[5]; rice plant 63-4D,No injury
same,Rating for sensitivity or resistance,[5]; rice plant 63-6C,Dead
